Literature values, collected in US20140308726A1, “Controlling Bacterial Biofilms in Ethanol Production” (ANITOX CORPORATION, priority 2011, published 2014).
Where two headings read alike, the source gives them in different places.

Key:
yeast = conditions: 8 g/L; beet molasses batch fermentation
Lactobacillus [1] = conditions: 600 mg/L
Lactobacillus [2] = conditions: 8.6 ppm Nisin combined with 0.1% Tween 20

CC(O)C(=O)O (centres unmarked) [lactic acid]
Reduction of alcohol production rate (yeast): 80%
Reduction of yeast viability (yeast): 95%

O=C(O)CCC(=O)O [Succinic acid]
Reduction of Lactobacillus concentrations (Lactobacillus [1]; by itself): 78%
Reduction of Lactobacillus concentrations (Lactobacillus [1]; in the presence of ethanol): up to 96%

Nisin
Delay of the lag phase of lactobacillus (Lactobacillus [2]): 12 h
